Measured values from a melting point compilation (Tetko et al.; mined from patent text by program, amines drawn as free bases though some values may be those of a salt).

melting point | Compound
140 to 142 °C | O=C1NC(OC(=O)c2ccccc2)C2=C1c1ccc(Cl)cc1C(c1ccccc1Cl)=NC2 (stereo unspecified)
147 to 148 °C | O=C(O)/C=C\C=C(c1ccccc1F)c1ccccc1F
165 to 166 °C | O=Cc1c(Cl)nc2ccc(Cl)cn12
136 to 141 °C | CCCC(=O)SCC(Cc1ccccc1)C(=O)Nc1cccc(C(=O)O)c1C (stereo unspecified)
206 to 207 °C | Cc1csc(N2CCN(Cc3ccc(C(=O)Nc4ccc(F)cc4)cc3)C2=O)n1
174 to 175 °C | CSC1C(=O)Nc2c(Oc3ccc4ccccc4c3)cccc21 (stereo unspecified)
249 to 251 °C | CCOC(=O)c1c(N)c2cc(Cl)ccc2n1C(=O)C(F)(F)F
268 to 269 °C | CCN(CC)C(=O)C(=NO)c1c[nH]c2c1ccc1c3ccccc3[nH]c12
57 to 58 °C | COC(=O)c1nsnc1Br
88 to 89 °C | Cc1ccc2ccc3c(c2c1)C(C)(C)C(=O)O3
86 to 87 °C | COC(=O)[C@@H]1C[C@@H](OS(C)(=O)=O)CN1C(=O)OC(C)(C)C
99.5 to 104 °C | Nc1nsnc1NCCCOc1cccc(CN2CC=CCC2)c1
57 to 59 °C | CC(=NNC(=N)N)c1cccc(OCc2ccc3ccccc3n2)c1
147 to 150 °C | COC1CCN(c2cc(NC(=O)OC(C)(C)C)c([N+](=O)[O-])cc2C#Cc2ccccc2)CC1
42 to 43 °C | CCOC(=O)C[C@@H]1c2ccccc2O[C@H]1c1ccccc1 (relative stereo)
31 to 35 °C | COC(=O)NC(CCc1ccccc1)C(=O)OCC(Cl)(Cl)Cl (stereo unspecified)
28 to 30 °C | CC(=O)SCC(C(=O)O)C(F)(F)F (stereo unspecified)
104 to 106 °C | CC(Cc1ccc(Oc2cc(N3CCN(Cc4ccccc4)CC3)nc(NCc3ccccc3)n2)cc1)(Oc1ccccc1)C(=O)O (stereo unspecified)
80 °C | Cc1cccc(C2CCCN2S(=O)(=O)c2ccc(F)cc2)c1 (racemic)
104 to 105 °C | CS(=O)c1ccc(-c2cc(C#N)nn2-c2ccc(F)cc2)cc1 (stereo unspecified)
198 to 199 °C | CCNCC1CCN(c2c(F)c(C)c3c(=O)c(C(=O)O)cn(C4CC4)c3c2F)C1 (stereo unspecified)
106 to 108 °C | CC(=O)NC1Cc2ccc(OC(=O)CCl)cc2C1 (stereo unspecified)
162 to 163 °C | CC(=O)c1ccc(OCC(O)COc2ccc(C#N)cc2)cc1O (stereo unspecified)
139 to 140 °C | CC1(C(=O)NCC(=O)O)CC1(Cl)Cl (stereo unspecified)
137 to 138 °C | O=C(NCCc1ccccc1CO)c1ccc([N+](=O)[O-])cc1
169 to 171 °C | CCCCNC(=O)NS(=O)(=O)c1ccc(CCNC(=O)N2Cc3ccc(C)cc3C2=O)cc1
228 to 231 °C | CCOC(=O)c1cnc2c(c1O)CC(C)CC2 (stereo unspecified)
142 to 144 °C | O=C(O)C(O)N1C(=O)CCN1c1cccc(C(F)(F)F)c1 (stereo unspecified)

melting point | Compound
41 to 42 °C | CCCCCCCCCCC#Cc1cccc([C@H]2O[C@@H]2CO)c1
163 to 165 °C | CC(=O)c1ccc2c(c1)C(=O)c1ccccc1CN2Cc1ccccc1
272 °C | CCOC(=O)c1ncn2c3cccc(Br)c3c(=O)n(C)c12
168 to 170 °C | CS(=O)(=O)Nc1n[nH]c(-c2ccncc2)c1-c1ccc(F)cc1
72 to 73 °C | CC(C)OC(=O)N=C1SCS1
116 to 121 °C | COc1ccc(N2CCN(C)CC2)cc1-c1cnn2c(N)c(-c3cccc(Cl)c3)c(C)nc12
150 to 154 °C | COC(=O)c1sc2ccccc2c1S(N)(=O)=O
226 to 228 °C | O=C(Nc1cccc2ccnnc12)c1c(Cl)cccc1Cl
115 to 116 °C | O=C(CCCCl)c1ccc2c(c1)Cc1cc(C(=O)CCCCl)ccc1S2
141 to 142 °C | Cc1cccc(C(=O)O)c1OC(=O)C=Cc1ccccc1
157 to 158 °C | COC(=O)c1cc(OC)cc(-c2ccc(N(C)C)cc2)n1
128 to 132 °C | CCCCCCCCCCCCCCCCCCOc1ccc(O)c(C(=O)N(CC(=O)O)CC(=O)O)c1
160 to 161 °C | O=c1nc(-c2ccnc(-c3cccs3)c2)sc2ccccc12
132 to 134 °C | CCOC(=O)C(C)(C)Oc1cccc2c1CC(O)C(SC)C2 (stereo unspecified)
55 to 57 °C | COC(C)Cn1c(C)nc2cnc3ccccc3c21 (stereo unspecified)
99 to 100 °C | CCOC(=O)Cc1ccc2c(c1)C(O)C(NC(=O)OC)CC2 (stereo unspecified)
234 to 236 °C | Cc1cn2c(n1)Cc1ccccc1NC2=O
228 to 232 °C | O=c1[nH]c2ccccc2cc1-c1csc(N(Cc2ccccc2)S(=O)(=O)c2ccccc2)n1
232 to 234 °C | Cc1ccc(NC(=O)NCc2ccc3c(c2)C(=O)N(C2(C)CCC(=O)NC2=O)C3=O)cc1Cl (stereo unspecified)
262 to 264 °C | FC(F)(F)c1cc(Cl)c(-n2ncc(-c3nc(C(F)(F)F)c[nH]3)n2)c(Cl)c1
159 °C | CN(C)C(=O)Sc1ccc(C(F)(F)F)cc1C(=O)c1ccc(C#N)cc1
111 to 113 °C | CCN(CC)Cc1nc(-c2ccc(OC)c(OC)c2)c2cc(OC)c(OC)cc2n1
137 to 138 °C | CC(C)n1nc(-c2c(-c3ccccc3)nn3cccc(OCCN(C)C)c23)ccc1=O
230 °C | CC(=O)Oc1cc(C)cc(C2(CC#N)N=NC=C2c2cc(NCC(C)OC(C)=O)nc(-c3cccnc3)n2)c1 (stereo unspecified)
126 to 128 °C | CCOC(=O)c1cc2ccccc2n1-c1ccc(OC)c(OC)c1
300 °C | O=C(O)c1cnc(Nc2ccccc2F)[nH]c1=O
166 to 167 °C | CCOC(=O)c1c(C(C)(C)O)nc(CC)n1Cc1ccc(-c2ccccc2-c2nnn[nH]2)cc1

Further lines, the compound ahead of its results:

Compound | melting point
CON(c1ccc([N+](=O)[O-])cc1[N+](=O)[O-])S(=O)(=O)c1cccc(Cl)c1 | 157 to 159 °C
CCOC(=N)c1ccccc1-c1ccc(Cn2c(OCC)nc3cccc(C(=O)OC)c32)cc1 | 105 to 106 °C
O=C(OCC1CO1)c1cccc(C(=O)OCC2CO2)c1 (stereo unspecified) | 60 to 65 °C
O=C(O)c1cccc(Cl)c1C[PH](=O)CO (stereo unspecified) | 219 to 220 °C
CCOC(=O)c1cc(SC)c(I)cc1N | 59 to 60 °C
Cn1c(CO)ncc(OCc2ccccc2)c1=O | 83 to 84 °C
COC(OC)c1cc(C)nc(NC(=O)NS(=O)(=O)c2ccccc2Cl)n1 | 150 to 153 °C
COc1ccc(Sc2nc(-c3ccccc3)n(Cc3cc4c(cc3Cl)OCO4)c2C=O)cc1 | 116 °C
CC(=O)NNc1nc(C(F)(F)F)nc(-c2ccc(S(C)(=O)=O)cc2)c1-c1ccccc1 | 265 to 268 °C
O=C(O)c1ccc(CC2COc3ccc(OCc4ccc5ccccc5n4)cc3C2O)cc1 (stereo unspecified) | 199 to 201 °C
CC(C)(C)OC(=O)N(CC(=O)O)CC(=O)O | 135 to 137 °C
CC1CC(=O)NN=C1c1cccc(C(F)(F)F)c1 (stereo unspecified) | 132 to 134 °C
CC(C)CCNC(=O)c1ccccc1-c1ccccc1CNS(=O)(=O)c1cccc(F)c1 | 141 °C
CC1(C)C=NC(CC(=O)O)(NC(c2ccccc2)(c2ccccc2)c2ccccc2)S1 (stereo unspecified) | 180 to 182 °C
O=C(O)COc1ccc2sc3ccccc3c(=O)c2c1 | 207 to 212 °C
Nc1cnc2c(NC(=O)c3c(Cl)cccc3Cl)cccc2c1-n1ccnc1 | > 250 °C
Cc1cnc2c(NC(=O)c3c(Cl)cccc3Cl)ccc(C)c2c1-n1ccnc1 | 214 to 216 °C
O=C(O)c1cccc(C(=O)c2ccc(Cl)cc2)c1 | 228 °C
O=c1[nH]c2cc(Cl)ccc2n1C1CCN(CCCNc2ccccc2[N+](=O)[O-])CC1 | 220 °C
C1=C(c2cccs2)CCN(CCCCc2c[nH]c3cc4c(cc23)OCO4)C1 | 86 °C
Cc1c(O)c(C)c(Br)c(C)c1Br | 144 to 146 °C
COc1cc(-c2csc3c2OCCO3)c(OC)c2c(OC)cc(-c3csc4c3OCCO4)c(OC)c12 | 300 to 303 °C
COCCNc1ccc(C(=O)c2c(C)n(CCN3CCOCC3)c3ccccc23)cc1 | 121 to 123 °C

Compound | melting point
Cc1ccc(-c2cccc(C(=O)O)c2)cc1 | 182 to 187 °C
COC(=O)c1cn2c3c(c(F)c(F)cc3c1=O)CC(C)N2C (stereo unspecified) | 184 to 185 °C
O=C(O)c1cccc(C(=O)c2ccc(F)cc2)c1 | 180 °C
Cc1ccc(-c2csc(NC(=O)Nc3nc(-c4ccc(C)cc4)cs3)n2)cc1 | > 300 °C
CC(C)(C)OC(=O)N1CCC[C@H](COc2ccccc2O)C1 | 98 to 101 °C
CC(C)c1nn(-c2nc3ccccc3s2)c(-c2ccc(F)cc2)c1C=CC1CC(O)CC(=O)O1 (stereo unspecified) | 168 to 170 °C
CC1(C)CCC(C)(C)c2cc(-c3cccc(C#CC(=O)O)c3)ccc21 | 164 to 165 °C
N#CCc1ccc(N)c(Cl)c1 | 77 °C
COc1ccc(C(=O)O)cc1OC1C=CCC1 (stereo unspecified) | 160 to 163 °C
COC(=O)c1ccc(CCc2nc(-c3ccccc3)c(C)s2)cc1 | 52 to 53 °C
COC(=O)c1c(N)ncn1C1c2ccccc2CC1(C)C (stereo unspecified) | 100 to 105 °C
NC[C@@H]1CCc2cc(S(=O)(=O)Nc3ccc(-n4ccn(CCCC5CCCCC5)c4=O)cc3)ccc2O1 | 108 to 110 °C
Cc1c(C)c2c(c(C)c1Br)OC(C)(C)C2=O | 125 to 127 °C
CC1(C)OC(=O)C(Sc2ccccc2)=C1c1ccc(S(C)(=O)=O)cc1 | 98 to 114 °C
Cc1cc(Cc2ccccc2)nc(Nc2ccc(-n3cnc(C)n3)c(F)c2)n1 | 183 to 185 °C
O=S(=O)(Br)c1cccc2cccnc12 | 142 to 144 °C
COC(=O)c1ccc(Cn2c(C)cn(C3CCc4ccccc4C3)c2=S)cc1 (stereo unspecified) | 140 to 141 °C
Cc1cc(-c2ncn(Cc3ccc(F)cc3)n2)sc1C(=O)NCc1ccccc1 | 128 to 130 °C
c1ccc2c(c1)nnn2C(n1nnc2ccccc21)n1nnc2ccccc21 | 194 to 195 °C
CC1=CC(O)C(OC(=O)C=Cc2ccccc2)C(C)(C)CC1=O (stereo unspecified) | 85.5 to 87 °C
COc1ccc(C(=O)Nc2ccccc2)cc1NC(=S)Nc1cccc(C(=O)O)c1 | 196 to 197 °C
CCOC(=O)C(Cc1ccc(OC)c(OC)c1)NC(=O)c1ccccc1 (stereo unspecified) | 82 to 83 °C
CN1C(=O)CC(c2ccccc2)C1C(O)c1ccc(C(=O)Nc2ccccc2)s1 (stereo unspecified) | 223 to 227 °C
